These are literature values, as cited in patent US9326457B2, “Micro layering pest control solution” (DAIRY SOLUTIONS, INC, priority 2013, dated 2016).

The conditions of this data set: natural pyrethrum, degrades very quickly; short duration application.

Pyrethrin: the half life entry is on record as “about 30 mins”.
